US11793849B2, “Method of Chinese herbal medicine extract used for treating multiple diseases caused by drug resistant bacteria infection” (priority 2016, dated 2023)
In brackets after ≈: the same amount, converted by molar mass. Like-named read-outs stand apart in the source and are kept apart here.

Columns and labels:
MDRAB [1] = experiment: MIC determination, microdilution broth method; format: cell-based, Acinetobacter baumannii
Experimental: Determination methods of a Minimal Inhibitory Concentration (MIC) and a Minimum Bactericidal Concentration (MBC) of a test product: the MIC and the MBC of the Pithecellobium clypearia Benth water or ethanol extract to the MDRAB are determined by a microdilution broth method. And it is operated by referring to the microdilution broth method recommended by National Committee for Clinical Laboratory Standards (NCCLS).

MDRAB [2] = experiment: Checkerboard assay (combined-use MIC, FIC); format: cell-based, Acinetobacter baumannii; details: for FIC, all strains / MIC50 of the antibiotic after combined use / reduction of the antibiotic's MIC50 vs single use / reduction of the antibiotic's MIC90 vs single use / share of strains with FIC ≤ 0.5: 20 MDRABs; for MIC: Acinetobacter baumannii, read-out: single-use MIC
Experimental: Test methods of the sensibilization effects of the test product to similar antibiotics: it is operated by referring to a checkerboard assay recommended by NCCLS.
The checkerboard assay is performed in a 96-pore sterile culture plate.
Calculation of a Fractional Inhibitory Concentration (FIC): FIC=S20b combined-use MIC/S20b single-use MIC+antibiotic combined-use MIC/antibiotic single-use MIC. By calculating the FIC, the combined antibacterial interaction between the EA and the antibiotic is evaluated, with synergistic effect for FIC≤0.5, additive effect for 0.5<FIC≤1, indifferent effect for 1<FIC≤2 and antagonistic effect for FIC>2. According to a sterile growth pore, the optimum concentration ratio between the EA and the antibiotic is founded out. At last, the effect of the EA to strengthen the efficacy of the antibiotic is evaluated.

ATCC27853 = experiment: MIC determination, control strain; format: cell-based; details: read-out: MIC
Experimental: Determination methods of a Minimal Inhibitory Concentration (MIC) and a Minimum Bactericidal Concentration (MBC) of a test product: the MIC and the MBC of the Pithecellobium clypearia Benth water or ethanol extract to the MDRAB are determined by a microdilution broth method.

[3] = antibiotic with 60% ethanol extract
[4] = antibiotic with 95% ethanol extract
[5] = antibiotic with EA (10% ethanol extract)
[6] = antibiotic with EA (water extract)

CN(C)[C@@H]1C(O)=C(C(N)=O)C(=O)[C@@]2(O)C(O)=C3C(=O)c4c(O)cccc4[C@@](C)(O)[C@H]3C[C@@H]12 [TE, Tetracycline]
MIC (MDRAB [1]; Acinetobacter baumannii, strain A4, EA=60% ethanol extract, read-out: MIC): 8 µg/mL (≈ 18 µM) | MIC (MDRAB [1]; Acinetobacter baumannii, strain A4, EA=95% ethanol extract, read-out: MIC): 8 µg/mL (≈ 18 µM) | MIC (MDRAB [1]; Acinetobacter baumannii, strain A4, single use, EA=10% ethanol extract, read-out: MIC): 8 µg/mL (≈ 18 µM) | MIC (MDRAB [1]; Acinetobacter baumannii, strain A4, single use, EA=water extract, read-out: MIC): 8 µg/mL (≈ 18 µM) | MIC (MDRAB [1]; Acinetobacter baumannii, strain A5, EA=60% ethanol extract, read-out: MIC): 32 µg/mL (≈ 72 µM) | MIC (MDRAB [1]; Acinetobacter baumannii, strain A5, EA=95% ethanol extract, read-out: MIC): 32 µg/mL (≈ 72 µM) | MIC (MDRAB [1]; Acinetobacter baumannii, strain A5, single use, EA=10% ethanol extract, read-out: MIC): 32 µg/mL (≈ 72 µM) | MIC (MDRAB [1]; Acinetobacter baumannii, strain A5, single use, EA=water extract, read-out: MIC): 32 µg/mL (≈ 72 µM) | MIC (MDRAB [1]; strain A15, single use, EA=10% ethanol extract): 1024 µg/mL (≈ 2300 µM) | MIC (MDRAB [1]; strain A15, single use, EA=water extract): 1024 µg/mL (≈ 2300 µM) | FIC, all strains (MDRAB [2]; [3]): ≤ 1 | MIC50 of the antibiotic after combined use (MDRAB [2]; [3]): 32 µg/mL | reduction of the antibiotic's MIC50 vs single use (MDRAB [2]; [3]): 87.5% | reduction of the antibiotic's MIC90 vs single use (MDRAB [2]; [3]): 75% | share of strains with FIC ≤ 0.5 (MDRAB [2]; [3]): 50% | FIC, all strains (MDRAB [2]; [4]): ≤ 1 | MIC50 of the antibiotic after combined use (MDRAB [2]; [4]): 32 µg/mL | reduction of the antibiotic's MIC50 vs single use (MDRAB [2]; [4]): 87.5% | reduction of the antibiotic's MIC90 vs single use (MDRAB [2]; [4]): 75% | share of strains with FIC ≤ 0.5 (MDRAB [2]; [4]): 35% | FIC, all strains (MDRAB [2]; [5]): ≤ 1 | MIC50 of the antibiotic after combined use (MDRAB [2]; [5]): 64 µg/mL | reduction of the antibiotic's MIC50 vs single use (MDRAB [2]; [5]): 75% | reduction of the antibiotic's MIC90 vs single use (MDRAB [2]; [5]): 50% | share of strains with FIC ≤ 0.5 (MDRAB [2]; [5]): 45% | FIC, all strains (MDRAB [2]; [6]): ≤ 1 | MIC50 of the antibiotic after combined use (MDRAB [2]; [6]): 64 µg/mL | reduction of the antibiotic's MIC50 vs single use (MDRAB [2]; [6]): 75% | reduction of the antibiotic's MIC90 vs single use (MDRAB [2]; [6]): 75% | share of strains with FIC ≤ 0.5 (MDRAB [2]; [6]): 35% | MIC (MDRAB [2]; strain A4, EA=60% ethanol extract): 8 µg/mL | MIC (MDRAB [2]; strain A4, EA=95% ethanol extract): 8 µg/mL | MIC (MDRAB [2]; strain A5 (printed AS in tables A43, A45), EA=95% ethanol extract): 32 µg/mL | MIC (MDRAB [2]; strain A5, EA=60% ethanol extract): 32 µg/mL | MIC (MDRAB [2]; strain A15, EA=60% ethanol extract): 1020 µg/mL | MIC (MDRAB [2]; strain A15, EA=95% ethanol extract): 1020 µg/mL | combined-use MIC (MDRAB [2]; strain A1, EA (10% ethanol extract) with TE): 1 µg/mL | combined-use MIC (MDRAB [2]; strain A1, EA (60% ethanol extract) + TE combined): 1 µg/mL | combined-use MIC (MDRAB [2]; strain A1, EA (95% ethanol extract) + TE combined): 1 µg/mL | combined-use MIC (MDRAB [2]; strain A1, EA (water extract) with TE): 1 µg/mL | combined-use MIC (MDRAB [2]; strain A2, EA (10% ethanol extract) with TE): 64 µg/mL | combined-use MIC (MDRAB [2]; strain A2, EA (60% ethanol extract) + TE combined): 64 µg/mL | combined-use MIC (MDRAB [2]; strain A2, EA (95% ethanol extract) + TE combined): 64 µg/mL | combined-use MIC (MDRAB [2]; strain A3, EA (10% ethanol extract) with TE): 64 µg/mL | combined-use MIC (MDRAB [2]; strain A3, EA (60% ethanol extract) + TE combined): 32 µg/mL | combined-use MIC (MDRAB [2]; strain A3, EA (95% ethanol extract) + TE combined): 32 µg/mL | combined-use MIC (MDRAB [2]; strain A3, EA (water extract) with TE): 64 µg/mL | combined-use MIC (MDRAB [2]; strain A4, EA (10% ethanol extract) with TE): 2 µg/mL | combined-use MIC (MDRAB [2]; strain A4, EA (60% ethanol extract) + TE combined): 1 µg/mL | combined-use MIC (MDRAB [2]; strain A4, EA (95% ethanol extract) + TE combined): 1 µg/mL | combined-use MIC (MDRAB [2]; strain A4, EA (water extract) with TE): 2 µg/mL | combined-use MIC (MDRAB [2]; strain A5, EA (10% ethanol extract) with TE): 4 µg/mL | combined-use MIC (MDRAB [2]; strain A5, EA (60% ethanol extract) + TE combined): 8 µg/mL | combined-use MIC (MDRAB [2]; strain A5, EA (95% ethanol extract) + TE combined): 8 µg/mL | combined-use MIC (MDRAB [2]; strain A5, EA (water extract) with TE): 4 µg/mL | combined-use MIC (MDRAB [2]; strain A6, EA (10% ethanol extract) with TE): 64 µg/mL | combined-use MIC (MDRAB [2]; strain A6, EA (water extract) with TE): 64 µg/mL | combined-use MIC (MDRAB [2]; strain A8, EA (10% ethanol extract) with TE): 64 µg/mL | combined-use MIC (MDRAB [2]; strain A8, EA (60% ethanol extract) + TE combined): 32 µg/mL | combined-use MIC (MDRAB [2]; strain A8, EA (95% ethanol extract) + TE combined): 32 µg/mL | combined-use MIC (MDRAB [2]; strain A9, EA (10% ethanol extract) with TE): 32 µg/mL | combined-use MIC (MDRAB [2]; strain A9, EA (60% ethanol extract) + TE combined): 32 µg/mL | combined-use MIC (MDRAB [2]; strain A9, EA (95% ethanol extract) + TE combined): 32 µg/mL | combined-use MIC (MDRAB [2]; strain A9, EA (water extract) with TE): 64 µg/mL | combined-use MIC (MDRAB [2]; strain A10, EA (10% ethanol extract) with TE): 32 µg/mL | combined-use MIC (MDRAB [2]; strain A10, EA (60% ethanol extract) + TE combined): 32 µg/mL | combined-use MIC (MDRAB [2]; strain A10, EA (95% ethanol extract) + TE combined): 32 µg/mL | combined-use MIC (MDRAB [2]; strain A10, EA (water extract) with TE): 64 µg/mL | combined-use MIC (MDRAB [2]; strain A11, EA (10% ethanol extract) with TE): 64 µg/mL | combined-use MIC (MDRAB [2]; strain A11, EA (60% ethanol extract) + TE combined): 32 µg/mL | combined-use MIC (MDRAB [2]; strain A11, EA (95% ethanol extract) + TE combined): 32 µg/mL | combined-use MIC (MDRAB [2]; strain A11, EA (water extract) with TE): 64 µg/mL | combined-use MIC (MDRAB [2]; strain A14, EA (60% ethanol extract) + TE combined): 32 µg/mL | combined-use MIC (MDRAB [2]; strain A14, EA (95% ethanol extract) + TE combined): 32 µg/mL | combined-use MIC (MDRAB [2]; strain A14, EA (water extract) with TE): 32 µg/mL | combined-use MIC (MDRAB [2]; strain A15, EA (60% ethanol extract) + TE combined): 64 µg/mL | combined-use MIC (MDRAB [2]; strain A15, EA (95% ethanol extract) + TE combined): 64 µg/mL | combined-use MIC (MDRAB [2]; strain A15, EA (water extract) with TE): 64 µg/mL | combined-use MIC (MDRAB [2]; strain A16, EA (water extract) with TE): 64 µg/mL | combined-use MIC (MDRAB [2]; strain A17, EA (10% ethanol extract) with TE): 64 µg/mL | combined-use MIC (MDRAB [2]; strain A18, EA (60% ethanol extract) + TE combined): 64 µg/mL | combined-use MIC (MDRAB [2]; strain A19, EA (water extract) with TE): 64 µg/mL | combined-use MIC (MDRAB [2]; strain A20, EA (60% ethanol extract) + TE combined): 32 µg/mL | combined-use MIC (MDRAB [2]; strain A20, EA (95% ethanol extract) + TE combined): 32 µg/mL | combined-use MIC (MDRAB [2]; strain A20, EA (water extract) with TE): 64 µg/mL | MIC (ATCC27853; EA=10% ethanol extract): 8 µg/mL (≈ 18 µM) | MIC (ATCC27853; EA=60% ethanol extract): 8 µg/mL (≈ 18 µM) | MIC (ATCC27853; EA=95% ethanol extract): 8 µg/mL (≈ 18 µM) | MIC (ATCC27853; EA=water extract): 8 µg/mL (≈ 18 µM)
